Measured values from paper PMC7481290, “Halogenation as a tool to tune antimicrobial activity of peptoids” (Scientific Reports, 2020).
Values after ≈ are worked out from the molar mass of the structure shown. Non-standard residues stand in square brackets, D forms with d. Residues, ends and D or L forms follow the SMILES beside them. Gly(Nα-4-Cl-benzyl) = O=C(O)CNCc1ccc(Cl)cc1; N(4-Br-benzyl)Gly = O=C(O)CNCc1ccc(Br)cc1; N(4-F-Bzl)Gly = O=C(O)CNCc1ccc(F)cc1; NBzl(4-I)Gly = O=C(O)CNCc1ccc(I)cc1; Nphe = O=C(O)CNCc1ccccc1; Nlys = NCCCCNCC(=O)O

What was measured:
[1] = test system: P. aeruginosa PA01 (H103); format: cell-based, Pseudomonas aeruginosa; details: H103, 18 h
Procedure: (§1) Bacterial growth inhibition was determined by using broth microdilution according to the Clinical Laboratory Standards Institute[43]. The antibacterial activity of peptoids was tested against S. aureus ATCC 25923, ATCC29213, and methicillin resistant S. aureus USA 300, methicillin resistant S. epidermidis ATCC 51625, a biofilm producing methicillin resistant S. epidermidis ET-024[44], P. aeruginosa Pa01 (H103), and E. coli ATCC 25922. Bacteria, grown on agar plates for 18 h at 37 °C, were diluted to ∼1 × 10^8 CFU/mL in Mueller‐Hinton Broth II (MHB II). Twofold serial dilutions of peptoids in MHB II were inoculated with bacteria to achieve a final concentration of 5 × 10^5 CFU/mL in polypropylene 96 U‐well microtiter plates (Corning 3,897; ThermoFisher Scientific, Roskilde), followed by incubation at 37 °C in ambient air for 18 h. The MIC values were determined as the lowest concentration showing no visible bacterial growth. Experiments were performed twice (in technical triplicates) on 2 different days.

[2] = test system: Methicillin-resistant S. epidermidis ATCC 51625; format: cell-based, Staphylococcus epidermidis; details: ATCC 51625, 18 h
Procedure: as §1

[3] = test system: Methicillin-resistant S. epidermidis ET-024; format: cell-based, Staphylococcus epidermidis; details: Methicillin-resistant ET-024, 18 h
Procedure: as §1

[4] = test system: S. aureus ATCC 29213; format: cell-based, Staphylococcus aureus; details: ATCC 29213, 18 h
Procedure: as §1

[5] = test system: S. aureus ATCC 25923; format: cell-based, Staphylococcus aureus; details: ATCC 25923, 18 h
Procedure: as §1

[6] = test system: Methicillin-resistant S. aureus USA 300; format: cell-based, Staphylococcus aureus; details: USA 300, 18 h
Procedure: as §1

[7] = test system: E. coli ATCC 25922; format: cell-based, Escherichia coli; details: ATCC 25922, 18 h
Procedure: as §1

Compound: NCCCCNCC(=O)N(CC(=O)N(CCCCN)CC(=O)N(CC(=O)N(CCCCN)CC(=O)N(CC(N)=O)Cc1ccc(Cl)cc1)Cc1ccc(Cl)cc1)Cc1ccc(Cl)cc1 [Compound 3] (H-[Nlys][Gly(Nα-4-Cl-benzyl)][Nlys][Gly(Nα-4-Cl-benzyl)][Nlys][Gly(Nα-4-Cl-benzyl)]-NH2)
- Minimal inhibitory concentration PA^g [1]: 512 µg/mL (≈ 541 µM)
- Minimal inhibitory concentration MRSE^e [2]: 8 µg/mL (≈ 8.45 µM)
- Minimal inhibitory concentration MRSE^d [3]: 16 µg/mL (≈ 16.9 µM)
- Minimal inhibitory concentration SA^b [4]: 64 µg/mL (≈ 67.6 µM)
- Minimal inhibitory concentration SA^a [5]: 64 µg/mL (≈ 67.6 µM)
- Minimal inhibitory concentration MRSA^c [6]: 16 µg/mL (≈ 16.9 µM)
- Minimal inhibitory concentration EC^f [7]: 512 µg/mL (≈ 541 µM)

Compound: NCCCCNCC(=O)N(CC(=O)N(CCCCN)CC(=O)N(CC(=O)N(CCCCN)CC(=O)N(CC(=O)N(CCCCN)CC(=O)N(CC(=O)N(CCCCN)CC(=O)N(CC(=O)N(CCCCN)CC(=O)N(CC(N)=O)Cc1ccc(I)cc1)Cc1ccccc1)Cc1ccc(I)cc1)Cc1ccccc1)Cc1ccc(I)cc1)Cc1ccccc1 [Compound 36] (H-[Nlys][Nphe][Nlys][NBzl(4-I)Gly][Nlys][Nphe][Nlys][NBzl(4-I)Gly][Nlys][Nphe][Nlys][NBzl(4-I)Gly]-NH2)
- Minimal inhibitory concentration PA^g [1]: > 512 µg/mL
- Minimal inhibitory concentration MRSE^e [2]: 1 µg/mL (≈ 0.489 µM)
- Minimal inhibitory concentration MRSE^d [3]: 4 µg/mL (≈ 1.95 µM)
- Minimal inhibitory concentration SA^b [4]: 16 µg/mL (≈ 7.82 µM)
- Minimal inhibitory concentration SA^a [5]: 8 µg/mL (≈ 3.91 µM)
- Minimal inhibitory concentration MRSA^c [6]: 4 µg/mL (≈ 1.95 µM)
- Minimal inhibitory concentration EC^f [7]: 256 µg/mL (≈ 125 µM)

Compound: NCCCCNCC(=O)N(CC(=O)N(CCCCN)CC(=O)N(CC(=O)N(CCCCN)CC(=O)N(CC(N)=O)Cc1ccc(I)cc1)Cc1ccccc1)Cc1ccc(I)cc1 [Compound 9] (H-[Nlys][NBzl(4-I)Gly][Nlys][Nphe][Nlys][NBzl(4-I)Gly]-NH2)
- Minimal inhibitory concentration PA^g [1]: 256 µg/mL (≈ 234 µM)
- Minimal inhibitory concentration MRSE^e [2]: 4 µg/mL (≈ 3.65 µM)
- Minimal inhibitory concentration MRSE^d [3]: 16 µg/mL (≈ 14.6 µM)
- Minimal inhibitory concentration SA^b [4]: 16 µg/mL (≈ 14.6 µM)
- Minimal inhibitory concentration SA^a [5]: 64 µg/mL (≈ 58.5 µM)
- Minimal inhibitory concentration MRSA^c [6]: 16 µg/mL (≈ 14.6 µM)
- Minimal inhibitory concentration EC^f [7]: 256 µg/mL (≈ 234 µM)

Compound: NCCCCNCC(=O)N(CC(=O)N(CCCCN)CC(=O)N(CC(=O)N(CCCCN)CC(=O)N(CC(=O)N(CCCCN)CC(=O)N(CC(=O)N(CCCCN)CC(=O)N(CC(=O)N(CCCCN)CC(=O)N(CC(N)=O)Cc1ccc(Br)cc1)Cc1ccccc1)Cc1ccc(Br)cc1)Cc1ccccc1)Cc1ccc(Br)cc1)Cc1ccccc1 [Compound 35] (H-[Nlys][Nphe][Nlys][N(4-Br-benzyl)Gly][Nlys][Nphe][Nlys][N(4-Br-benzyl)Gly][Nlys][Nphe][Nlys][N(4-Br-benzyl)Gly]-NH2)
- Minimal inhibitory concentration PA^g [1]: > 512 µg/mL
- Minimal inhibitory concentration MRSE^e [2]: 1 µg/mL (≈ 0.525 µM)
- Minimal inhibitory concentration MRSE^d [3]: 8 µg/mL (≈ 4.2 µM)
- Minimal inhibitory concentration SA^b [4]: 8 µg/mL (≈ 4.2 µM)
- Minimal inhibitory concentration SA^a [5]: 8 µg/mL (≈ 4.2 µM)
- Minimal inhibitory concentration MRSA^c [6]: 8 µg/mL (≈ 4.2 µM)
- Minimal inhibitory concentration EC^f [7]: 256 µg/mL (≈ 134 µM)

Compound: NCCCCNCC(=O)N(CC(=O)N(CCCCN)CC(=O)N(CC(=O)N(CCCCN)CC(=O)N(CC(=O)N(CCCCN)CC(=O)N(CC(N)=O)Cc1ccc(Cl)cc1)Cc1ccc(Cl)cc1)Cc1ccc(Cl)cc1)Cc1ccc(Cl)cc1 [Compound 12] (H-[Nlys][Gly(Nα-4-Cl-benzyl)][Nlys][Gly(Nα-4-Cl-benzyl)][Nlys][Gly(Nα-4-Cl-benzyl)][Nlys][Gly(Nα-4-Cl-benzyl)]-NH2)
- Minimal inhibitory concentration PA^g [1]: > 512 µg/mL
- Minimal inhibitory concentration MRSE^e [2]: 1 µg/mL (≈ 0.796 µM)
- Minimal inhibitory concentration MRSE^d [3]: 2 µg/mL (≈ 1.59 µM)
- Minimal inhibitory concentration SA^b [4]: 4 to 8 µg/mL
- Minimal inhibitory concentration SA^a [5]: 4 µg/mL (≈ 3.18 µM)
- Minimal inhibitory concentration MRSA^c [6]: 2 µg/mL (≈ 1.59 µM)
- Minimal inhibitory concentration EC^f [7]: 64 µg/mL (≈ 50.9 µM)

Compound: NCCCCNCC(=O)N(CC(=O)N(CCCCN)CC(=O)N(CC(=O)N(CCCCN)CC(=O)N(CC(=O)N(CCCCN)CC(=O)N(CC(=O)N(CCCCN)CC(=O)N(CC(=O)N(CCCCN)CC(=O)N(CC(N)=O)Cc1ccc(Cl)cc1)Cc1ccc(Cl)cc1)Cc1ccc(Cl)cc1)Cc1ccc(Cl)cc1)Cc1ccc(Cl)cc1)Cc1ccc(Cl)cc1 [Compound 30] (H-[Nlys][Gly(Nα-4-Cl-benzyl)][Nlys][Gly(Nα-4-Cl-benzyl)][Nlys][Gly(Nα-4-Cl-benzyl)][Nlys][Gly(Nα-4-Cl-benzyl)][Nlys][Gly(Nα-4-Cl-benzyl)][Nlys][Gly(Nα-4-Cl-benzyl)]-NH2)
- Minimal inhibitory concentration PA^g [1]: > 512 µg/mL
- Minimal inhibitory concentration MRSE^e [2]: 1 µg/mL (≈ 0.533 µM)
- Minimal inhibitory concentration MRSE^d [3]: 2 µg/mL (≈ 1.07 µM)
- Minimal inhibitory concentration SA^b [4]: 2 µg/mL (≈ 1.07 µM)
- Minimal inhibitory concentration SA^a [5]: 2 µg/mL (≈ 1.07 µM)
- Minimal inhibitory concentration MRSA^c [6]: 2 µg/mL (≈ 1.07 µM)
- Minimal inhibitory concentration EC^f [7]: 64 µg/mL (≈ 34.1 µM)

Compound: NCCCCNCC(=O)N(CC(=O)N(CCCCN)CC(=O)N(CC(=O)N(CCCCN)CC(=O)N(CC(=O)N(CCCCN)CC(=O)N(CC(=O)N(CCCCN)CC(=O)N(CC(=O)N(CCCCN)CC(=O)N(CC(N)=O)Cc1ccc(Br)cc1)Cc1ccc(Br)cc1)Cc1ccc(Br)cc1)Cc1ccc(Br)cc1)Cc1ccc(Br)cc1)Cc1ccc(Br)cc1 [Compound 31] (H-[Nlys][N(4-Br-benzyl)Gly][Nlys][N(4-Br-benzyl)Gly][Nlys][N(4-Br-benzyl)Gly][Nlys][N(4-Br-benzyl)Gly][Nlys][N(4-Br-benzyl)Gly][Nlys][N(4-Br-benzyl)Gly]-NH2)
- Minimal inhibitory concentration PA^g [1]: 256 µg/mL (≈ 119 µM)
- Minimal inhibitory concentration MRSE^e [2]: 4 µg/mL (≈ 1.87 µM)
- Minimal inhibitory concentration MRSE^d [3]: 4 µg/mL (≈ 1.87 µM)
- Minimal inhibitory concentration SA^b [4]: 8 µg/mL (≈ 3.73 µM)
- Minimal inhibitory concentration SA^a [5]: 4 µg/mL (≈ 1.87 µM)
- Minimal inhibitory concentration MRSA^c [6]: 2 µg/mL (≈ 0.933 µM)
- Minimal inhibitory concentration EC^f [7]: 64 µg/mL (≈ 29.9 µM)

Compound: NCCCCNCC(=O)N(CC(=O)N(CCCCN)CC(=O)N(CC(=O)N(CCCCN)CC(=O)N(CC(=O)N(CCCCN)CC(=O)N(CC(=O)N(CCCCN)CC(=O)N(CC(=O)N(CCCCN)CC(=O)N(CC(N)=O)Cc1ccc(F)cc1)Cc1ccccc1)Cc1ccc(F)cc1)Cc1ccccc1)Cc1ccc(F)cc1)Cc1ccccc1 [Compound 33] (H-[Nlys][Nphe][Nlys][N(4-F-Bzl)Gly][Nlys][Nphe][Nlys][N(4-F-Bzl)Gly][Nlys][Nphe][Nlys][N(4-F-Bzl)Gly]-NH2)
- Minimal inhibitory concentration PA^g [1]: 256 µg/mL (≈ 149 µM)
- Minimal inhibitory concentration MRSE^e [2]: 4 µg/mL (≈ 2.32 µM)
- Minimal inhibitory concentration MRSE^d [3]: 16 µg/mL (≈ 9.29 µM)
- Minimal inhibitory concentration SA^b [4]: 256 µg/mL (≈ 149 µM)
- Minimal inhibitory concentration SA^a [5]: 256 µg/mL (≈ 149 µM)
- Minimal inhibitory concentration MRSA^c [6]: 128 µg/mL (≈ 74.3 µM)
- Minimal inhibitory concentration EC^f [7]: 256 µg/mL (≈ 149 µM)

Compound: NCCCCNCC(=O)N(CC(=O)N(CCCCN)CC(=O)N(CC(=O)N(CCCCN)CC(=O)N(CC(=O)N(CCCCN)CC(=O)N(CC(N)=O)Cc1ccc(Cl)cc1)Cc1ccccc1)Cc1ccc(Cl)cc1)Cc1ccccc1 [Compound 16] (H-[Nlys][Nphe][Nlys][Gly(Nα-4-Cl-benzyl)][Nlys][Nphe][Nlys][Gly(Nα-4-Cl-benzyl)]-NH2)
- Minimal inhibitory concentration PA^g [1]: 512 µg/mL (≈ 431 µM)
- Minimal inhibitory concentration MRSE^e [2]: 8 µg/mL (≈ 6.74 µM)
- Minimal inhibitory concentration MRSE^d [3]: 8 µg/mL (≈ 6.74 µM)
- Minimal inhibitory concentration SA^b [4]: 64 µg/mL (≈ 53.9 µM)
- Minimal inhibitory concentration SA^a [5]: 16 µg/mL (≈ 13.5 µM)
- Minimal inhibitory concentration MRSA^c [6]: 16 µg/mL (≈ 13.5 µM)
- Minimal inhibitory concentration EC^f [7]: 256 µg/mL (≈ 216 µM)

Compound: NCCCCNCC(=O)N(CC(=O)N(CCCCN)CC(=O)N(CC(=O)N(CCCCN)CC(=O)N(CC(N)=O)Cc1ccc(Cl)cc1)Cc1ccccc1)Cc1ccc(Cl)cc1 [Compound 7] (H-[Nlys][Gly(Nα-4-Cl-benzyl)][Nlys][Nphe][Nlys][Gly(Nα-4-Cl-benzyl)]-NH2)
- Minimal inhibitory concentration PA^g [1]: 512 µg/mL (≈ 561 µM)
- Minimal inhibitory concentration MRSE^e [2]: 32 µg/mL (≈ 35.1 µM)
- Minimal inhibitory concentration MRSE^d [3]: 64 µg/mL (≈ 70.2 µM)
- Minimal inhibitory concentration SA^b [4]: 256 µg/mL (≈ 281 µM)
- Minimal inhibitory concentration SA^a [5]: 256 µg/mL (≈ 281 µM)
- Minimal inhibitory concentration MRSA^c [6]: 128 µg/mL (≈ 140 µM)
- Minimal inhibitory concentration EC^f [7]: 256 µg/mL (≈ 281 µM)
